Measurements reported in ChEMBL document CHEMBL6134872, “Efficacy and Toxicity Analysis of Selective BET Bromodomain Inhibitors in Models of Inflammatory Liver Disease” (J Med Chem, 2025).
Activity calls are given as the source filed them. The rule behind the calls is not given here.

Assays:
[1] = Toxicity in mouse Megakaryocyte cells assessed as reduction in thrombocytopenia risk by CFU-MK Assay; type: cell-based
[2] = target: Bromodomain-containing protein 2 (Homo sapiens, UniProt P25440); test: Inhibition of his9-tagged BRD2-BD2 (unknown origin) preincubated for 30 mins followed by addition of biotinylated peptide and measured after 30 mins by Alphascreen assay
[3] = target: T1, Bromodomain-containing protein 4 (Homo sapiens, UniProt O60885); test: Inhibition of his9-tagged BRD4-BD1 (unknown origin) preincubated for 30 mins followed by addition of biotinylated peptide and measured after 30 mins by Alphascreen assay
[4] = target: T1, Bromodomain-containing protein 4; test: Inhibition of human his tagged BRD4-BD2 using Histone H4 peptide (1-21) K5/8/12/16Ac as substrate preincubated for 30 mins followed by addition of biotinylated peptide and measured after 30 mins by Alphascreen assay
[5] = Cytotoxicity against mouse TSEC cells at up to 200 uM measured after 4 hrs by XTT assay; type: toxicity, cell-based
[6] = system: TSEC; test: Antiinflammatory activity against LPS induced mouse TSEC cells assessed as inhibition of CXCL1 expression at 0.3 to 5 uM preincubated for 1 hr followed by LPS stimulation and measured after 4 hrs by qPCR analysis; type: functional, cell-based; settings: dose 0.3-5 µM, time 5.0 hrs
[7] = system: TSEC; test: Antiinflammatory activity against LPS induced mouse TSEC cells assessed as inhibition of CCL2 expression at 0.3 to 5 uM preincubated for 1 hr followed by LPS stimulation and measured after 4 hrs by qPCR analysis; type: functional, cell-based; settings: dose 0.3-5 µM, time 5.0 hrs
[8] = target: T1, Bromodomain-containing protein 4; test: Inhibition of N-luc fused BRD4-BD1 in HEK293T cells using NanoGlo substrate as substrate incubated for 2 hrs by NanoBRET assay; type: cell-based
[9] = target: T1, Bromodomain-containing protein 4; test: Inhibition of N-luc fused BRD4-BD1 in HEK293T cells using NanoGlo substrate as substrate at 10 uM incubated for 2 hrs by NanoBRET assay relative to control; type: cell-based
[10] = target: T1, Bromodomain-containing protein 4; test: Binding affinity to N-luc fused BRD4-BD1 in HEK293T cells assessed as apparent inhibition constant using NanoGlo substrate as substrate incubated for 2 hrs by NanoBRET assay; type: cell-based; settings: read-out: Ki(app)
[11] = target: T1, Bromodomain-containing protein 4; test: Induction of stabilization of BRD4-BD1 in human HEK293T cells at 0.5 to 5 uM incubated for 2 hrs by CESTA analysis; type: cell-based; settings: dose 0.5-5 µM
[12] = Metabolic stability in mouse liver microsomes assessed as half life […] measured after 60 mins in presence of NADPH by LC-MS/MS analysis; type: ADME, Microsome
[13] = Cmax in male C57BL6 mouse plasma at 10 mg/kg, ip measured up to 24 hrs by LC-MS/MS analysis; type: ADME, organism-based
[14] = Cmax in male C57BL6 mouse liver at 10 mg/kg, ip measured up to 24 hrs by LC-MS/MS analysis; type: ADME, organism-based; settings: in vivo
[15] = Half life in male C57BL6 mouse liver at 10 mg/kg, ip measured up to 24 hrs by LC-MS/MS analysis; type: ADME, organism-based; settings: for half-life: male, C57BL6, mouse, liver
[16] = AUC in male C57BL6 mouse plasma at 10 mg/kg, ip measured up to 24 hrs by LC-MS/MS analysis; type: ADME, organism-based; settings: for AUC at 24 h: male, C57BL6, mouse, plasma
[17] = AUC in male C57BL6 mouse liver at 10 mg/kg, ip measured up to 24 hrs by LC-MS/MS analysis; type: ADME, organism-based; settings: in vivo
[18] = Apparent oral clearance in male C57BL6 mouse plasma at 10 mg/kg, ip measured up to 24 hrs by LC-MS/MS analysis; type: ADME, organism-based
[19] = system: Mus musculus; test: Antiinflammatory activity against LPS-induced C57BL/6J mouse model assessed as reduction in Cxcl1 expression at 30 mg/kg, po preincubated for 1 hr followed by LPS stimulation and measured after 8 hrs by qPCR analysis; type: functional, organism-based; settings: time 9.0 hrs
[20] = system: Mus musculus; test: Antiinflammatory activity against LPS-induced C57BL/6J mouse model assessed as reduction in Cxcl2 expression at 30 mg/kg, po preincubated for 1 hr followed by LPS stimulation and measured after 8 hrs by qPCR analysis; type: functional, organism-based; settings: time 9.0 hrs
[21] = system: Mus musculus; test: Antiinflammatory activity against LPS-induced C57BL/6J mouse model assessed as reduction in Ccl2 expression at 30 mg/kg, po preincubated for 1 hr followed by LPS stimulation and measured after 8 hrs by qPCR analysis; type: functional, organism-based; settings: time 9.0 hrs
[22] = system: Mus musculus; test: Antiinflammatory activity against APAP-induced C57BL/6J mouse liver injury model assessed as reduction in Cxcl1 expression at 30 mg/kg, po preincubated for 1 hr followed by APAP stimulation and measured after 8 hrs by qPCR analysis; type: functional, organism-based; settings: time 9.0 hrs
[23] = system: Mus musculus; test: Antiinflammatory activity against APAP-induced C57BL/6J mouse liver injury model assessed as reduction in Cxcl2 expression at 30 mg/kg, po preincubated for 1 hr followed by APAP stimulation and measured after 8 hrs by qPCR analysis; type: functional, organism-based; settings: time 9.0 hrs
[24] = system: Mus musculus; test: Antiinflammatory activity against APAP-induced C57BL/6J mouse liver injury model assessed as reduction in Ccl2 expression at 30 mg/kg, po preincubated for 1 hr followed by APAP stimulation and measured after 8 hrs by qPCR analysis; type: functional, organism-based; settings: time 9.0 hrs
[25] = system: Mus musculus; test: Antiinflammatory activity against APAP-induced C57BL/6J mouse liver injury model assessed as reduction in Ly6G expression at 30 mg/kg, po preincubated for 1 hr followed by APAP stimulation and measured after 8 hrs by qPCR analysis; type: functional, organism-based; settings: time 9.0 hrs
[26] = system: Mus musculus; test: Antiinflammatory activity against APAP-induced C57BL/6J mouse liver injury model assessed as reduction in necrosis at 30 mg/kg, po preincubated for 1 hr followed by APAP stimulation and measured after 12 hrs by H and E staining based analysis; type: functional, organism-based
[27] = system: Mus musculus; test: Antiinflammatory activity against LPS-induced C57BL/6J mouse model assessed as reduction in goblet cell in small intestine at 30 mg/kg, po preincubated for 1 hr followed by LPS stimulation and measured after 8 days by alcian blue staining based analysis; type: functional, organism-based; settings: time 9.0 hrs
[28] = Cytotoxicity against mouse TSEC cells at 10 uM measured after 4 hrs by XTT assay; type: toxicity, cell-based
[29] = mouse, megakaryocyte cells (CFU-MK colony formation)
[30] = male, C57BL6, mouse, plasma, read-out: CL/F (converted)
[31] = mouse, in vivo, ip, 10 mg/kg, 24 h

Bromodomain-containing protein 2, sequence (P25440 whole entry): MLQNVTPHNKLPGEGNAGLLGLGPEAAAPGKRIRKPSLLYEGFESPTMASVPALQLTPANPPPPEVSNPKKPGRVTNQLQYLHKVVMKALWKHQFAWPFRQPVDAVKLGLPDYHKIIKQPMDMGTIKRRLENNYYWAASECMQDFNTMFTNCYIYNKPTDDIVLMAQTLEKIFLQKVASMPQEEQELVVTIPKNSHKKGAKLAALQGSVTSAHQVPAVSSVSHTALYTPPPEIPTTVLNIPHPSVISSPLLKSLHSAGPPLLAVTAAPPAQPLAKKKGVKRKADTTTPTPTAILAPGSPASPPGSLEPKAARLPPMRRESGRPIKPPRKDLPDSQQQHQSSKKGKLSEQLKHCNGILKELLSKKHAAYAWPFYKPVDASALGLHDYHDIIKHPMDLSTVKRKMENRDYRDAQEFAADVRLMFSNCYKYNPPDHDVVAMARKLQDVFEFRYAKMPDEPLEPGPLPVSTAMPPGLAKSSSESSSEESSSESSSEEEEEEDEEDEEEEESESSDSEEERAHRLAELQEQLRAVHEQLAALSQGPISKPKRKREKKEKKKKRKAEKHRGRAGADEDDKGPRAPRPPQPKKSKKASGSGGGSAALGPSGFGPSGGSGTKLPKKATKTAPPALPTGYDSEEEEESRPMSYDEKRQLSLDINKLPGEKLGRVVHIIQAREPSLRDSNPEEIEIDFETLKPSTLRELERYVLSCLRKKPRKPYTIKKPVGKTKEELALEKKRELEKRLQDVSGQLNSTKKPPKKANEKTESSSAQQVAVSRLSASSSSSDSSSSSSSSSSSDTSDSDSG

CCNC(=O)c1cc2c(-c3cc(C(C)(C)O)ccc3Oc3c(C)cc(F)cc3C)cn(C)c(=O)c2[nH]1 [ABBV-744]
EC50 [1, 29]: 3 nM

O=C(Nc1ccc(C(F)(F)F)cc1)Nc1ccc(S(=O)(=O)N2CCC[C@H]2CN2CCOCC2)cc1
IC50 [2]: > 50 µM

Cc1ccc(C(C)C)cc1Oc1nccc(-c2c(-c3ccc(C(F)(F)F)cc3)ncn2C2CCN(CCO)CC2)n1
IC50 [3]: 111 nM | IC50 [4]: > 10 µM | IC50 [2]: > 10 µM | Activity [5]: Non-toxic | Activity [6]: Active | Activity [7]: Active | EC50 [8]: 2450 nM | inhibition [9]: 36% | Ki [10]: 936 nM | Activity [11]: inactive | half-life [12]: 77.5 min | Cmax [13]: 1050 nM | Cmax [14]: 38.9 nmol/g | half-life [15]: 204 min | AUC at 24 h [16]: 4.04 µM·h | AUC [17]: 138 nmol·h/g | CL/F [18, 30]: 65 mL/min/kg | Activity [19]: Active; Compound Showed No Significant Reduction Compared To I-Bet151 And Compound 3(Dw34) | Activity [20]: Active; Compound Showed No Significant Reduction Compared To I-Bet151 And Compound 3(Dw34) | Activity [21]: Active; Compound Showed No Significant Reduction Compared To I-Bet151 And Compound 3(Dw34) | Activity [22]: Active | Activity [23]: inactive | Activity [24]: Active | Activity [25]: inactive | Activity [26]: Active | EC50 ([1]; megakaryocyte): 1830 nM

CC(=O)Nc1c(F)cc(C(=O)N[C@H]2CC[C@H](O)CC2)cc1O[C@@H](C)c1ccccc1 [GSK046]
IC50 [2]: 0.049 µM | Activity [5]: Non-toxic | Activity [7]: Active; Compound Is Less Effective Than I-Bet151 And Compound 3 | Activity [23]: inactive | Activity [24]: inactive | Activity [26]: Active | EC50 ([1]; megakaryocyte): 380 nM

CCS(=O)(=O)Nc1ccc(Oc2ccc(F)cc2F)c(-c2cn(C)c(=O)c3[nH]ccc23)c1 [MIVEBRESIB]
EC50 [1, 29]: 645 nM

COc1cc2c(cc1-c1c(C)noc1C)ncc1[nH]c(=O)n([C@H](C)c3ccccn3)c12
Activity [5]: Non-toxic | Activity [11]: Active | Activity [19]: Active | Activity [20]: Active | Activity [21]: Active | Activity [22]: Active | Activity [23]: Active | Activity [24]: inactive | Activity [25]: Active | Activity [26]: inactive | EC50 ([1]; megakaryocyte): 1280 nM | Activity [27]: Active

Cc1cc(C)cc(Oc2cccc(-c3c(C)nnn3C3CCN(CCN(C)C)CC3)n2)c1
Activity [5]: Non-toxic | Activity [6]: Active | Activity [7]: Active | Activity [11]: inactive | Cmax [13]: 430 nM | Cmax [14]: 3.69 nmol/g | half-life [15]: 138 min | AUC at 24 h [16]: 0.64 µM·h | AUC [17]: 2.65 nmol·h/g | CL/F [18, 30]: 470 mL/min/kg | Activity [19]: Active; Compound Showed No Significant Reduction Compared To I-Bet151 And Compound 3(Dw34) | Activity [20]: Active; Compound Showed No Significant Reduction Compared To I-Bet151 And Compound 3(Dw34) | Activity [21]: Active; Compound Showed No Significant Reduction Compared To I-Bet151 And Compound 3(Dw34) | Activity [22]: Active | Activity [23]: Active | Activity [24]: Active | Activity [25]: Active | Activity [26]: Active | EC50 ([1]; megakaryocyte): 90 nM | Activity [27]: Active

Cc1ccc(C(C)C)cc1Oc1nccc(-c2c(-c3ccc(C(F)(F)F)cc3)ncn2C2CCNCC2)n1
Activity [28]: Toxic | Activity [6]: Active | Activity [7]: Active | half-life [12]: 207 min | Cmax [13]: 1800 nM | Cmax [14]: 137 nmol/g | t1/2 [15, 31]: 6.8 h | AUC [16, 31]: 40.2 µM·h | AUC [17]: 1402 nmol·h/g | CL/F [18, 31]: 418 mL/min/kg | Activity [19]: Active | Activity [20]: Active | Activity [21]: Active | Activity [22]: Active | Activity [23]: Active | Activity [24]: Active | Activity [25]: Active | Activity [26]: Active | EC50 ([1]; megakaryocyte): 670 nM | Activity [27]: Active
